Measured values from patent US7465783B2, “Plant peptide with antimicrobial activity” (Centre National de la Recherche Scientifique, priority 2002, dated 2008).
Ends that are not written are not given here.

Columns and labels:
Type in all cases: cell-based
[1] = tested on: protoplasts of Arabidopsis thaliana
Excerpt: This experiment has the aim of determining whether the effect of the peptide on the viability of the protoplasts of Arabidopsis thaliana corresponds to the cell necrosis or else to the implementation of the process of programmed cell death or apoptosis.
Apoptosis is distinguished from necrosis by a rigorous staging of death, punctuated by a set of genetically controlled events (Vaux and Korsmeyer (Cell, 1999, 96: 245-254); Pennell and Lamb (Plant Cell, 1997, 9: 1157-1168); Greenberg (P.N.A.S., 1996, 93: 12094-12097)). […] The TUNEL reaction allows the free 3′OH ends present in great quantity in the nuclei whose DNA is fragmented in the course of the process of apoptosis to be labeled.
The external application of the peptide of 25 amino acids to protoplasts of Arabidopsis thaliana at 5 μM for 2 hours allows an increase in the population of positive TUNEL protoplasts to be observed (FIG. 5B). 4 times more nuclei show DNA fragmentation characteristics with respect to the control.

[2] = tested on: Xanthomonas campestris pv campestris strain 8004; assay: Antimicrobial (bacteriostatic) activity, peptide drops on TOPagar lawn
Procedure: (§1) Toxicity experiments on the peptide of 25 amino acids (SUP 25) purified in the preceding example on different bacteria were carried out. The different bacteria are cultured in 5 ml of LB medium or of medium appropriate to the strain, and then sedimented by centrifugation at 3000 g, and finally taken up in a volume of LB identical to the volume of bacteria. 50 μl of bacteria are inoculated into 9 ml of liquid TOPagar (LB+7 g/l of bactoagar) at 48° C. and rapidly poured into a square LB agar dish of 10 cm on each side. The drops of 10 μl of different concentrations of peptides are deposited on the solidified ToPagar. The dish is cultured for 16 hours. Cecropin A at 20 μM, an insect peptide recognized as having antibacterial activity, serves as a positive control.

[3] = tested on: Pseudomonas syringae pv tomato strain DC3000; assay: as above
Procedure: as §1

[4] = tested on: Escherichia coli Strain DH5α; assay: as above
Procedure: as §1

Row | Substance | cytotoxic activity (fragmentation of nuclear DNA, TUNEL), in words [1] | Cecropin A 20 μM (positive control, antibacterial activity) [2] | Cecropin A 20 μM (positive control, antibacterial activity) [3] | Cecropin A 20 μM (positive control, antibacterial activity) [4]
1 | MWWLVGLTPVELIHLCAFRERLSHL [Pep1S] | no longer has cytotoxic activity | – | – | –
2 | Cecropin A [reference compound] | – | Positive | Positive | Positive
3 | MWWLVGLTPVELIHLSAFRERLSHL [Pep2S] | has a cytotoxic activity | – | – | –
